Test results as given in article PMC4890168 (Journal of medicinal chemistry, 2016).

What was measured:
GRK2 = target: T1, GRK2 (Bos taurus, UniProt P21146, S670A, species not given); experiment: GRK2 kinase inhibition; format: biochemical
T1 sequence (P21146 1-689 S670A): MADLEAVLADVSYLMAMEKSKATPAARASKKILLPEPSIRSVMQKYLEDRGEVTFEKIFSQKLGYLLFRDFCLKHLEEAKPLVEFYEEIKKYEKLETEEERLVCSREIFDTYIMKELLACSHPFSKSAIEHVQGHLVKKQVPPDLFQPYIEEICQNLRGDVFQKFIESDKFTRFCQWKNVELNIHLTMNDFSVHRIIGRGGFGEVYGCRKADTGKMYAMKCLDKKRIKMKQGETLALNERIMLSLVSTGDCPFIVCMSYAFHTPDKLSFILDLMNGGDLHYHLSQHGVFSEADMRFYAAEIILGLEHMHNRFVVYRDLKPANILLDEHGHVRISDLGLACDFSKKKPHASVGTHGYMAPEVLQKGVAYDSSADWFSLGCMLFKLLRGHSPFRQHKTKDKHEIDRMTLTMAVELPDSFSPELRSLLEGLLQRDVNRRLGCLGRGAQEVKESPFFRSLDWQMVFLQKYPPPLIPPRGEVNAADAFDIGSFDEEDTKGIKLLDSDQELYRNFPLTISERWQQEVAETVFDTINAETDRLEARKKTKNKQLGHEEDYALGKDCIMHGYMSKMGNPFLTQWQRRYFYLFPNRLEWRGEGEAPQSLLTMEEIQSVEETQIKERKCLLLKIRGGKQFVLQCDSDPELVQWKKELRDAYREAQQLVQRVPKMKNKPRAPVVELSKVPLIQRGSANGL

PKA = PKA (Homo sapiens, UniProt P17612); experiment: PKA inhibition, ADP-Glo Kinase Assay
ROCK1 = ROCK1 (Homo sapiens, UniProt Q13464); experiment: ROCK1 inhibition, ADP-Glo Kinase Assay
Sequence of ROCK1 (Q13464 whole entry, species assumed): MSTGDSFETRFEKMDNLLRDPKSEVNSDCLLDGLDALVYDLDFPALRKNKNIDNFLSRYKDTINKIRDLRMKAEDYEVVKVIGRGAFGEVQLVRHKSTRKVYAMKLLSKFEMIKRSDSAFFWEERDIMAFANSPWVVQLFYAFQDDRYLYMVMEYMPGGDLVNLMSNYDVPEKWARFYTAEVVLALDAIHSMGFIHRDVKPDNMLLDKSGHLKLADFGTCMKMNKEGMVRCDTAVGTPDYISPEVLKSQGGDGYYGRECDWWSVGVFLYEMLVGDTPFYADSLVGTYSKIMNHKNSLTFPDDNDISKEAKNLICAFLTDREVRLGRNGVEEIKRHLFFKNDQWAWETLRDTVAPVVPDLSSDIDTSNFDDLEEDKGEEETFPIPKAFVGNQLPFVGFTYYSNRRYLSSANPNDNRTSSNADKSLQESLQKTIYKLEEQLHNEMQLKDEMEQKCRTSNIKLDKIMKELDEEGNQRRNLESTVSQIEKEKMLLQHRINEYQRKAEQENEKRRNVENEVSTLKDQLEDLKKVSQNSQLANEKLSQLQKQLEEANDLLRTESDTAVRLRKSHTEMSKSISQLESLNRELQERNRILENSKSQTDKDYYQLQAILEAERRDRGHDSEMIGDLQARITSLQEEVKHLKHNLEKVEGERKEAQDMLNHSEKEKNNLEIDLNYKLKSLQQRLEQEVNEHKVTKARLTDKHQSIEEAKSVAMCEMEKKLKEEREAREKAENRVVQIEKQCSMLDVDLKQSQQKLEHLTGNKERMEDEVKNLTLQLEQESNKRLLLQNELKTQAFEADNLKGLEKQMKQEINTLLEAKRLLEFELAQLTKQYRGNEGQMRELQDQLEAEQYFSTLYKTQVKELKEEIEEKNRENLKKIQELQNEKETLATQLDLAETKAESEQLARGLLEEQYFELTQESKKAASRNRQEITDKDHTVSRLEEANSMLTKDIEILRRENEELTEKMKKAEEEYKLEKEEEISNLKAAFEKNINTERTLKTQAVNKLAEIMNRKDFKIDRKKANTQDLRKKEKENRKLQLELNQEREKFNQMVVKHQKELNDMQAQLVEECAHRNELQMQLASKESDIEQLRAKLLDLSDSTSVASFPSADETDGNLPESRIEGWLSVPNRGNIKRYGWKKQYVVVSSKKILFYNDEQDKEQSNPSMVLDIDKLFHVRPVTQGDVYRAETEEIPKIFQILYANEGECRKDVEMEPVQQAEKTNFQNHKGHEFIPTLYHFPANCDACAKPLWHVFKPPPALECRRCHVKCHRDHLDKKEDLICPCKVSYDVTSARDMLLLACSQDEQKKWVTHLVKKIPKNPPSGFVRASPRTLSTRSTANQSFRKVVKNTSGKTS

Row | IC50 (PKA) [µM] | Structure (SMILES) | other results
1 | – | CC1=C(C(=O)Nc2ccc3[nH]ncc3c2)C(c2ccc(F)c(C(=O)O)c2)NC(=O)N1 (centres unmarked) [Compound 10, 5-(5-((1H-Indazol-5-yl)carbamoyl)-6-methyl-2-oxo-1,2,3,4-tetrahydropyrimidin-4-yl)-2-fluorobenzoic acid] | loss in potency against GRK2 relative to 2 (GRK2): 20 fold; loss in potency against PKA relative to 2 (PKA): 2 fold
2 | > 100 | CC1=C(C(=O)Nc2ccc3[nH]ncc3c2)C(c2ccc(F)c(C(=O)NCCc3ccncc3)c2)NC(=O)N1 (centres unmarked) [Compound 12j, 4-(4-Fluoro-3-((2-(pyridin-4-yl)ethyl)carbamoyl)phenyl)-N-(1H-indazol-5-yl)-6-methyl-2-oxo-1,2,3,4-tetrahydropyrimidine-5-carboxamide] | –
3 | > 100 | CC1=C(C(=O)Nc2ccc3[nH]ncc3c2)C(c2ccc(F)c(C(=O)NCc3cc(C(F)(F)F)cc(C(F)(F)F)c3)c2)NC(=O)N1 (centres unmarked) [Compound 12p, 4-(3-((3,5-Bis(trifluoromethyl)benzyl)carbamoyl)-4-fluorophenyl)-N-(1H-indazol-5-yl)-6-methyl-2-oxo-1,2,3,4-tetrahydropyrimidine-5-carboxamide] | –
4 | > 100 | COc1ccc(CNC(=O)c2cc(C3NC(=O)NC(C)=C3C(=O)Nc3ccc4[nH]ncc4c3)ccc2F)cc1 (centres unmarked) [Compound 12g, 4-(4-Fluoro-3-((4-methoxybenzyl)carbamoyl)phenyl)-N-(1H-indazol-5-yl)-6-methyl-2-oxo-1,2,3,4-tetrahydropyrimidine-5-carboxamide] | –
5 | > 100 | CC1=C(C(=O)Nc2ccc3[nH]ncc3c2)C(c2ccc(F)c(CC(=O)NCc3c(C)cccc3C)c2)NC(=O)N1 (centres unmarked) [Compound 13a, 4-(3-(2-((2,6-Dimethylbenzyl)amino)-2-oxoethyl)-4-fluorophenyl)-N-(1H-indazol-5-yl)-6-methyl-2-oxo-1,2,3,4-tetrahydropyrimidine-5-carboxamide] | –
6 | > 100 | CC1=C(C(=O)Nc2ccc3[nH]ncc3c2)C(c2ccc(F)c(C(=O)NCCc3ccccn3)c2)NC(=O)N1 (centres unmarked) [Compound 12i, 4-(4-Fluoro-3-((2-(pyridin-2-yl)ethyl)carbamoyl)phenyl)-N-(1H-indazol-5-yl)-6-methyl-2-oxo-1,2,3,4-tetrahydropyrimidine-5-carboxamide] | –
7 | > 100 | CC1=C(C(=O)Nc2ccc3[nH]ncc3c2)C(c2ccc(F)c(C(=O)NCCc3c(C)cccc3C)c2)NC(=O)N1 (centres unmarked) [Compound 12r, 4-(3-((2,6-Dimethylphenethyl)carbamoyl)-4-fluorophenyl)-N-(1H-indazol-5-yl)-6-methyl-2-oxo-1,2,3,4-tetrahydropyrimidine-5-carboxamide] | –
8 | > 100 | CC1=C(C(=O)Nc2ccc3[nH]ncc3c2)C(c2ccc(F)c(C(=O)NCc3ccccn3)c2)NC(=O)N1 (centres unmarked) [Compound 12h, 4-(4-Fluoro-3-((pyridin-2-ylmethyl)carbamoyl)phenyl)-N-(1H-indazol-5-yl)-6-methyl-2-oxo-1,2,3,4-tetrahydropyrimidine-5-carboxamide] | IC50 (ROCK1): ~0.01 µM; increase in potency for ROCK1 over 2 (ROCK1): 10 fold
9 | > 100 | COc1cccc(CNC(=O)c2cc(C3NC(=O)NC(C)=C3C(=O)Nc3ccc4[nH]ncc4c3)ccc2F)c1 (centres unmarked) [Compound 12f, 4-(4-Fluoro-3-((3-methoxybenzyl)carbamoyl)phenyl)-N-(1H-indazol-5-yl)-6-methyl-2-oxo-1,2,3,4-tetrahydropyrimidine-5-carboxamide] | –
10 | > 100 | CC1=C(C(=O)Nc2ccc3[nH]ncc3c2)C(c2ccc(F)c(C(=O)NCc3ncccc3C)c2)NC(=O)N1 (centres unmarked) [Compound 12q, 4-(4-Fluoro-3-(((3-methylpyridin-2-yl)methyl)carbamoyl)phenyl)-N-(1H-indazol-5-yl)-6-methyl-2-oxo-1,2,3,4-tetrahydropyrimidine-5-carboxamide] | –
11 | > 100 | CC1=C(C(=O)Nc2ccc3[nH]ncc3c2)C(c2ccc(F)c(CC(=O)NCc3c(C(F)(F)F)cccc3C(F)(F)F)c2)NC(=O)N1 (centres unmarked) [Compound 13b, 4-(3-(2-((2,6-Bis(trifluoromethyl)benzyl)amino)-2-oxoethyl)-4-fluorophenyl)-N-(1H-indazol-5-yl)-6-methyl-2-oxo-1,2,3,4-tetrahydropyrimidine-5-carboxamide] | –
12 | > 100 | COc1cccc(OC)c1CNC(=O)Cc1cc(C2NC(=O)NC(C)=C2C(=O)Nc2ccc3[nH]ncc3c2)ccc1F (centres unmarked) [Compound 13c, 4-(3-(2-((2,6-Dimethoxybenzyl)amino)-2-oxoethyl)-4-fluorophenyl)-N-(1H-indazol-5-yl)-6-methyl-2-oxo-1,2,3,4-tetrahydropyrimidine-5-carboxamide] | –
13 | > 100 | CC1=C(C(=O)Nc2ccc3[nH]ncc3c2)C(c2ccc(F)c(C(=O)NCc3cccc(F)c3)c2)NC(=O)N1 (centres unmarked) [Compound 12c, 4-(4-Fluoro-3-((3-fluorobenzyl)carbamoyl)phenyl)-N-(1H-indazol-5-yl)-6-methyl-2-oxo-1,2,3,4-tetrahydropyrimidine-5-carboxamide] | –
14 | > 100 | CC1=C(C(=O)Nc2ccc3[nH]ncc3c2)C(c2ccc(F)c(C(=O)NCc3ccccc3)c2)NC(=O)N1 (centres unmarked) [Compound 12b, 4-(3-(Benzylcarbamoyl)-4-fluorophenyl)-N-(1H-indazol-5-yl)-6-methyl-2-oxo-1,2,3,4-tetrahydropyrimidine-5-carboxamide] | –
15 | > 100 | COc1ccccc1CNC(=O)c1cc(C2NC(=O)NC(C)=C2C(=O)Nc2ccc3[nH]ncc3c2)ccc1F (centres unmarked) [Compound 12e, 4-(4-Fluoro-3-((2-methoxybenzyl)carbamoyl)phenyl)-N-(1H-indazol-5-yl)-6-methyl-2-oxo-1,2,3,4-tetrahydropyrimidine-5-carboxamide] | –
16 | > 100 | CNC(=O)c1cc(C2NC(=O)NC(C)=C2C(=O)Nc2ccc3[nH]ncc3c2)ccc1F (centres unmarked) [Compound 12a, 4-(4-Fluoro-3-(methylcarbamoyl)phenyl)-N-(1H-indazol-5-yl)-6-methyl-2-oxo-1,2,3,4-tetrahydropyrimidine-5-carboxamide] | loss in potency against GRK2 relative to 2 (GRK2): 5 fold
17 | > 100 | CC1=C(C(=O)Nc2ccc3[nH]ncc3c2)C(c2ccc(F)c(C(=O)NCc3c(C(F)(F)F)cccc3C(F)(F)F)c2)NC(=O)N1 (centres unmarked) [Compound 12o, 4-(3-((2,6-Bis(trifluoromethyl)benzyl)carbamoyl)-4-fluorophenyl)-N-(1H-indazol-5-yl)-6-methyl-2-oxo-1,2,3,4-tetrahydropyrimidine-5-carboxamide] | –
18 | > 100 | CC1=C(C(=O)Nc2ccc3c(c2)OCO3)C(c2ccc(F)c(C(=O)NCc3ccccn3)c2)NC(=O)N1 (centres unmarked) [Compound 24, N-(Benzo[d][1,3]dioxol-5-yl)-4-(4-fluoro-3-((pyridin-2-ylmethyl)carbamoyl)phenyl)-6-methyl-2-oxo-1,2,3,4-tetrahydropyrimidine-5-carboxamide] | kinase inhibition (GRK2; GRK2, GRK1, GRK5, PKA (Table 2)): completely inactive
19 | > 100 | CC1=C(C(=O)N(C)c2ccc3[nH]ncc3c2)C(c2ccc(F)c(C(=O)NCc3c(C)cccc3C)c2)NC(=O)N1 (centres unmarked) [Compound 20, 4-(3-((2,6-Dimethylbenzyl)carbamoyl)-4-fluorophenyl)-N-(1H-indazol-5-yl)-N,6-dimethyl-2-oxo-1,2,3,4-tetrahydropyrimidine-5-carboxamide] | decrease in potency at GRK2 compared to 12m (GRK2): ~70 fold
20 | > 100 | Fc1ccc([C@@H]2CCNC[C@H]2COc2ccc3c(c2)OCO3)cc1 [Paroxetine, paroxetine, reference compound] | –
